# Legend:
# [1] = target: butyrylcholinesterase from equine serum (Equus caballus, UniProt P81908); assay: Butyrylcholinesterase; assay type: biochemical; settings: read-out: % Inhibition at 100 μg/mL (BChE)
# [2] = system: BChE; settings: cited from earlier work
# [3] = system: β-amyloid-induced neurotoxicity; settings: mice; cited from earlier work
# [4] = system: mice with valium-impaired memory; settings: radial arm maze; cited from earlier work
# [5] = system: neuronal cell death caused by oxidative stress; settings: cited from earlier work
# [6] = system: AChE; settings: cited from earlier work
# butyrylcholinesterase from equine serum, sequence (P81908 whole entry): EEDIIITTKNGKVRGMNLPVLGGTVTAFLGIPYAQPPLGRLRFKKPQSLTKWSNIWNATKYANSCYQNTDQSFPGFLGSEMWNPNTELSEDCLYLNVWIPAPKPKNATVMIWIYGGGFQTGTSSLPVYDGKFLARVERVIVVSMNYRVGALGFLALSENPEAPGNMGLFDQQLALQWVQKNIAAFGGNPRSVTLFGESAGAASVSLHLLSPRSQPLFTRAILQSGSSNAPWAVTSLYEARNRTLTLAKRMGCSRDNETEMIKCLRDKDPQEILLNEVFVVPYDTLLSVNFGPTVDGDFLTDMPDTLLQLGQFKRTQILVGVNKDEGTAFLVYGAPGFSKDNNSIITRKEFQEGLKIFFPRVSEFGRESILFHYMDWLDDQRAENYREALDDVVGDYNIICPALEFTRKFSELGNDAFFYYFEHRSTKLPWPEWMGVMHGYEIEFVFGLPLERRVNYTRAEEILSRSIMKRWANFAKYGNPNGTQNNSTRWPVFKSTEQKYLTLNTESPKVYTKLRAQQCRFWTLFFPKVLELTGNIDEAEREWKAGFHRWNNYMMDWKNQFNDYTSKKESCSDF
structure (smiles),measurement,setting,value
"O=c1c(O[C@@H]2O[C@H](CO)[C@@H](O)[C@H](O)[C@H]2O)c(-c2ccc(O)cc2)oc2cc(O)cc(O)c12 [Compound 13, kaempferol 3-O-β-glucopyranoside]",inhibition at 100 µg/mL,[1],7.45 ± 0.72%
"C/C=C(\CC[C@@H](C)[C@H]1CC[C@H]2[C@@H]3CC=C4C[C@@H](O)CC[C@]4(C)[C@H]3CC[C@]12C)C(C)C [Fucosterol, fucosterol]",BChE inhibitory activity,[2],weak BChE inhibitory activity
"CNC(=O)Oc1ccc2c(c1)[C@]1(C)CCN(C)[C@@H]1N2C [Physostigmine, physostigmine, reference compound]",inhibition at 100 µg/mL,[1],94.94 ± 0.04%
COc1cc(/C=C/C(=O)O)ccc1O [ferulic acid],β-amyloid-induced neurotoxicity,[3],attenuate
O=c1c(O)c(-c2ccc(O)cc2)oc2cc(O)cc(O)c12 [kaempferol],spatial learning and memory,[4],significantly improved
"O=C(O)/C=C/c1ccc(O)cc1 [p-coumaric, p-coumaric acid]",β-amyloid-induced neurotoxicity,[3],attenuate
"Cc1c(C)c2c(c(C)c1O)CC[C@@](C)(CCC[C@H](C)CCC[C@H](C)CCCC(C)C)O2 [α-Tocopherol, α-tocopherol]",protection against neuronal cell death caused by oxidative stress,[5],protective effects
CC[C@H](CC[C@@H](C)[C@H]1CC[C@H]2[C@@H]3CC=C4C[C@@H](O)CC[C@]4(C)[C@H]3CC[C@]12C)C(C)C [β-sitosterol],inhibitory effect on AChE,[6],no appreciable inhibitory effect
same,inhibitory effect on BChE,[2],no appreciable inhibitory effect

# Reference: article PMC9339560 (Journal of Food and Drug Analysis, 2016)
